Holding throughout (experiment): SelectScreen Kinase Profiling, single point inhibition and IC50 for off-target kinases
Type in all cases: biochemical

Assay [1] addresses off-target kinases (Homo sapiens, UniProt Q5S007, I2020T). The conditions noted are these: LRRK2 I2020T, ATP Km app, Adapta.
The target in assay [2] is off-target kinases (Homo sapiens, UniProt P07949, G691S). The conditions noted are these: RET G691S, mutant y, LanthaScreen Binding. (TR-FRET usually uses a lanthanide donor and a delayed reading to cut background.)
Chain of off-target kinases (Homo sapiens, UniProt P07949, G691S) (P07949 29-1114 G691S): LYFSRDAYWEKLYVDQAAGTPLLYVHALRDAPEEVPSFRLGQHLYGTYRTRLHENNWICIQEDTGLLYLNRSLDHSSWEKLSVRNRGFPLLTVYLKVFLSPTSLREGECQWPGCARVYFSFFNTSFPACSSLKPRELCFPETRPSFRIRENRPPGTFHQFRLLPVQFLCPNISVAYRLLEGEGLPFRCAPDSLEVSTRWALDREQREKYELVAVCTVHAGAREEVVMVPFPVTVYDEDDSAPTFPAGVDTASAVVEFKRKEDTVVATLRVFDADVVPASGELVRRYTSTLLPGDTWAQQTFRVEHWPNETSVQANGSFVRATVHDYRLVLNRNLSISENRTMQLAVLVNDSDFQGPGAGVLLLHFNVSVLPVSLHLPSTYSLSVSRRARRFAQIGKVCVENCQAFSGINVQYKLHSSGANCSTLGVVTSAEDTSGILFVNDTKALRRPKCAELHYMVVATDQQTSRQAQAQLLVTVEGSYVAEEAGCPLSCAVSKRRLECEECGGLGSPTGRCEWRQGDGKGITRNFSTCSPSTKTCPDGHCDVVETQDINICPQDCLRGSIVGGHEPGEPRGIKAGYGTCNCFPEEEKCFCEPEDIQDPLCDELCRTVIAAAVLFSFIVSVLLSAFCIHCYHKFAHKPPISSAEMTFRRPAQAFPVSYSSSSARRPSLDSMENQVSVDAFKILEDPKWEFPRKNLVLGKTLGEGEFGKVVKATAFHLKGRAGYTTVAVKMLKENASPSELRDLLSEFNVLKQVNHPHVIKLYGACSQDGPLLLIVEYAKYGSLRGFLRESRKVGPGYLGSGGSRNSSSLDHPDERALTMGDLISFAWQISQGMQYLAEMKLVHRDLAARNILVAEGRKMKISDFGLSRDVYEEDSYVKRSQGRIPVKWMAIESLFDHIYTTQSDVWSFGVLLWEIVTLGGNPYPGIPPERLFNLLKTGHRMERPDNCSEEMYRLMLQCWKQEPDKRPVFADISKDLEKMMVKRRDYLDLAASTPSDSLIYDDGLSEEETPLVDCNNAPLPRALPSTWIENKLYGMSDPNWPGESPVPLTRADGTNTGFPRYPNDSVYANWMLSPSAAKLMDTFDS
For assay [3], the target named is T1, off-target kinases (Homo sapiens, UniProt Q16566).
T1 sequence (Q16566 1-473): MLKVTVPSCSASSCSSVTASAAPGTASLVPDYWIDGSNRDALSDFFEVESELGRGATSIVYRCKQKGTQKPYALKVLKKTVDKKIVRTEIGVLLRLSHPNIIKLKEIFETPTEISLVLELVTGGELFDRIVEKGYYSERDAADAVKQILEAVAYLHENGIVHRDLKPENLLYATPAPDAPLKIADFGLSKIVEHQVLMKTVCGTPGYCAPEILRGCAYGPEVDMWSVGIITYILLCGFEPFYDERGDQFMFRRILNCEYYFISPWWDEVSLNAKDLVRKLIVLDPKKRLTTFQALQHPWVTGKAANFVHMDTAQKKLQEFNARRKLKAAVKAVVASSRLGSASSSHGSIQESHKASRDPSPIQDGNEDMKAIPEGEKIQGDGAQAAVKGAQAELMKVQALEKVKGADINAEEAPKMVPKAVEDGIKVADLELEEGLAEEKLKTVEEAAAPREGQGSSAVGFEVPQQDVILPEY

Assay [4] concerns the target T2, off-target kinases (Homo sapiens, UniProt P52564).
T2 sequence (P52564 1-334): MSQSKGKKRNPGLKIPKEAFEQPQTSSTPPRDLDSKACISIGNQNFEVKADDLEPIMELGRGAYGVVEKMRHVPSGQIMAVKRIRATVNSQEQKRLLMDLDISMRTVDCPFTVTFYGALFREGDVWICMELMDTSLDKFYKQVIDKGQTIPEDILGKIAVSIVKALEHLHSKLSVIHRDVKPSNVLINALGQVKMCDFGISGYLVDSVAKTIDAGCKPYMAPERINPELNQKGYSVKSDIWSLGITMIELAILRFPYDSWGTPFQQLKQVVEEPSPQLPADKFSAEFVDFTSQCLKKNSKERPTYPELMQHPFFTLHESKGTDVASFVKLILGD

For assay [5], the target named is off-target kinases (Homo sapiens, UniProt Q9Y5S2). The settings on record: CDC42 BPB (MRCKB), ZLYTE, ATP Km app.

Where two headings read alike, the source gives them in different places.

Chain of off-target kinases (Homo sapiens, UniProt Q5S007, I2020T) (Q5S007 whole entry I2020T): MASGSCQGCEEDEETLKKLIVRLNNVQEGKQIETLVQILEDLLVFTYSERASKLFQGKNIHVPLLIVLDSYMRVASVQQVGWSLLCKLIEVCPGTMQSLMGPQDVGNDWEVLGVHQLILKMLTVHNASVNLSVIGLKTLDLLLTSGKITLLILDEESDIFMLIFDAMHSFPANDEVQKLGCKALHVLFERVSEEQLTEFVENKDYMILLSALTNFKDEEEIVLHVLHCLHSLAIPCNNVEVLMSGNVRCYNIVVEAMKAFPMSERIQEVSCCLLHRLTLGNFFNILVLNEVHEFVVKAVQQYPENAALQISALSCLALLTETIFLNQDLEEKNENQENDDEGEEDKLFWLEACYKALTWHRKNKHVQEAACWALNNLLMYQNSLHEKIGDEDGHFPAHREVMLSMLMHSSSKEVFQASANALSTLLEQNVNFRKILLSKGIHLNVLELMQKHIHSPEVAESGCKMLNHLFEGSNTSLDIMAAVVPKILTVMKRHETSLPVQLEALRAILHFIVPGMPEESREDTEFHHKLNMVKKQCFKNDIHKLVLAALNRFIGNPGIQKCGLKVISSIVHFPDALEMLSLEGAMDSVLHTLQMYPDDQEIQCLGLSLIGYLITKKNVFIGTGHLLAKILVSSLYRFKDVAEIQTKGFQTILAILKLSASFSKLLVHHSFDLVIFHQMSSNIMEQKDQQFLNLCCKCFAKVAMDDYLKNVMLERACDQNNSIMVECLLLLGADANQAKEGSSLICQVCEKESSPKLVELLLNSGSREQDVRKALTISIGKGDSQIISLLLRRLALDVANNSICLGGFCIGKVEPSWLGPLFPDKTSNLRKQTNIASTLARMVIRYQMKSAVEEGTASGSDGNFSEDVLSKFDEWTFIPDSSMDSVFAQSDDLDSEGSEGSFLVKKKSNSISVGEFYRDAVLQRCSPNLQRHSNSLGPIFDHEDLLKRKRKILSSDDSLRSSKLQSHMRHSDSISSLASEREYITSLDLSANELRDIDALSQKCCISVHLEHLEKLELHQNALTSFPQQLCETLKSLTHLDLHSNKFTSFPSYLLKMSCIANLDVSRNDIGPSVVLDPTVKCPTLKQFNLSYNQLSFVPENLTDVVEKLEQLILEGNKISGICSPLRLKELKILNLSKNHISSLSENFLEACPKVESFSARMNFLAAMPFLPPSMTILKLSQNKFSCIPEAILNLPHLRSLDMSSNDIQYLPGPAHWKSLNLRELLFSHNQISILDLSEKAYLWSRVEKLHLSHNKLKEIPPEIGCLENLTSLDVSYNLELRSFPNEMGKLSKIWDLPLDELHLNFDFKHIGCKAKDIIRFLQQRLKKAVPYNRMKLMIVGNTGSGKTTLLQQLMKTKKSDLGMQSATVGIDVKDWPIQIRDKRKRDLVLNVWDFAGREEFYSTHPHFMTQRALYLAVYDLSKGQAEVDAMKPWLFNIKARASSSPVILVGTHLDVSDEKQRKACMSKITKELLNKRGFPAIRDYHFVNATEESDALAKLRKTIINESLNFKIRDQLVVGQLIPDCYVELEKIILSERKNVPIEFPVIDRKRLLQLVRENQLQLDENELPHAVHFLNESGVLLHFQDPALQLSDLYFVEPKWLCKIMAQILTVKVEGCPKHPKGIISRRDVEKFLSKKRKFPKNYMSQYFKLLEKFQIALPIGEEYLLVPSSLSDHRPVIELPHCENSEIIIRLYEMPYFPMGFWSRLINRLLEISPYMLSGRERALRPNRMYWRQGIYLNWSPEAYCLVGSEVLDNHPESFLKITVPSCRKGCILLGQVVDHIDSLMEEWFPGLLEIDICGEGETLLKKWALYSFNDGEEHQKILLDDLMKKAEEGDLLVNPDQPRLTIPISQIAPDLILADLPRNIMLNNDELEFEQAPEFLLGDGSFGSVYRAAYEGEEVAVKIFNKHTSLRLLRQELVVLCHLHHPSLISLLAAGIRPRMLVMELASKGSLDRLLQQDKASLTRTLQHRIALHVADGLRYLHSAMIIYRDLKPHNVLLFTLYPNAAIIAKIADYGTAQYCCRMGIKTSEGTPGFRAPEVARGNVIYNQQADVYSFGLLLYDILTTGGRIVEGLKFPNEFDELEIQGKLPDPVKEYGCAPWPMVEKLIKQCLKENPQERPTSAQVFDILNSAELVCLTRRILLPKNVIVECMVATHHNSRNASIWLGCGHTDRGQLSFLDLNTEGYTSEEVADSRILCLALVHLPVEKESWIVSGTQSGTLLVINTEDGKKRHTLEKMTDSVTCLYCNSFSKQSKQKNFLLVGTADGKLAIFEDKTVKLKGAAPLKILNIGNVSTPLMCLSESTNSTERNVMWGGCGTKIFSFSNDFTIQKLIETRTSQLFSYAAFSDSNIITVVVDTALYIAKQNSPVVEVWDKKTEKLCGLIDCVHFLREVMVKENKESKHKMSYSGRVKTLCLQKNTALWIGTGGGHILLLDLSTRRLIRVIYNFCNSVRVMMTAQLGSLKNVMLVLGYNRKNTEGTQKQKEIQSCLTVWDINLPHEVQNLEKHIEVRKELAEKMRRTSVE

For the compound `N#Cc1cc(-c2ncnc(Nc3ccc(N4CCN(C5COC5)CC4)cc3)n2)ccc1OC1CCOCC1` [Compound 1, 5-(4-((4-(4-(oxetan-3-yl)piperazin-1-yl)phenyl)amino)-1,3,5-triazin-2-yl)-2-((tetrahydro-2H-pyran-4-yl)oxy)benzonitrile], the inhibition is 100% at off-target kinases [1] (read-out: % Inhibition 1); 98% on off-target kinases [1] (read-out: % Inhibition 2); 99% at off-target kinases [1] (read-out: % Inhibition Avg); 19% at off-target kinases [2] (read-out: % Inhibition 1); 18% at off-target kinases [2] (read-out: % Inhibition 2); 18% on off-target kinases [2] (read-out: % Inhibition Avg). For the same compound, the inhibition at off-target kinases [3] (CAMK4 (CaMKIV), ZLYTE, ATP Km app, read-out: % Inhibition 2) was -2%; at off-target kinases [3] (CAMK4 (CaMKIV), ZLYTE, ATP Km app, read-out: % Inhibition Avg), -2%; at off-target kinases [3] (read-out: % Inhibition 1) it was -2%; on off-target kinases [4] (MAP2K6 (MKK6), LanthaScreen Binding, read-out: % Inhibition 2), 4%; on off-target kinases [4] (MAP2K6 (MKK6), LanthaScreen Binding, read-out: % Inhibition Avg), 1%; on off-target kinases [4] (MAP2K6 (MKK6), ZLYTE, ATP 100, read-out: % Inhibition 1), 0%. Also, the inhibition on off-target kinases [4] (MAP2K6 (MKK6), ZLYTE, ATP 100, read-out: % Inhibition 2) is 19%; at off-target kinases [4] (MAP2K6 (MKK6), ZLYTE, ATP 100, read-out: % Inhibition Avg) it was 9%; at off-target kinases [4] (read-out: % Inhibition 1), -2%; on off-target kinases [5] (read-out: % Inhibition 1) it was 6%; on off-target kinases [5] (read-out: % Inhibition 2), 13%; on off-target kinases [5] (read-out: % Inhibition Avg), 10%.

The term inhibition denotes the change of the read-out against control, counted positive when it falls.

The values above are taken from patent US11572590B2, “Methods for evaluating tumor cell spheroids using 3D microfluidic cell culture device” (Dana-Farber Cancer Institute, Inc., priority 2017, dated 2023).
